Source: US12317914B2, “Compositions and methods using one or more autophagy-inducing amino acids to potentiate musculoskeletal effect of one or more anabolic amino acids” (SOCIETE DES PRODUITS NESTLE S.A., priority 2019, dated 2025)

System: LC3 protein fused to ZsGreen
Test: zebrafish autophagy reporter (LC3-ZsGreen, skeletal muscle specific promoter), number of LC3 punctae
Format: in vivo
Conditions: zebrafish larvae treated at 48 h post-fertilization, 0.25 to 10 mM, 16 hours of treatment
Experimental: After 16 hours of treatment larvae were anesthetized with 0.016% tricaine and imaged with ImageXpress confocal system at 20× magnification (Molecular Devices). Z stack images were captured for each larva and maximal projection images were produced. Number of LC3 punctae have been calculated with MetaXpress software (Moleculare Devices) and normalized by fish area.

Question: How did the “effect on autophagy (number of LC3 punctae normalized by fish area)” value turn out when `N=C(N)NCCC[C@H](N)C(=O)O` [Arginine] was run?
Answer: reduce basal autophagy

Question: `N[C@@H](CS)C(=O)O` [Cysteine] was tested. Which “effect on autophagy (number of LC3 punctae normalized by fish area)” value did it give?
Answer: strongly induce autophagy

Question: How did the “effect on autophagy (number of LC3 punctae normalized by fish area)” value turn out when `N[C@@H](CCC(=O)O)C(=O)O` [Glutamate] was run?
Answer: strongly induce autophagy

Question: Which “effect on autophagy (number of LC3 punctae normalized by fish area)” value does the source give for `NC(=O)CC[C@H](N)C(=O)O` [Glutamine] here?
Answer: reduce basal autophagy

Question: Which “effect on autophagy (number of LC3 punctae normalized by fish area)” value does the source give for `NCC(=O)O` [Glycine] here?
Answer: strongly induce autophagy

Question: For `CC[C@H](C)[C@H](N)C(=O)O` [Isoleucine], which “effect on autophagy (number of LC3 punctae normalized by fish area)” value is on record?
Answer: reduce basal autophagy

Question: For `CC(C)C[C@H](N)C(=O)O` [Leucine], which “effect on autophagy (number of LC3 punctae normalized by fish area)” value is on record?
Answer: reduce basal autophagy

Question: Which “effect on autophagy (number of LC3 punctae normalized by fish area)” value does the source give for `CSCC[C@H](N)C(=O)O` [Methionine] here?
Answer: strongly induce autophagy

Question: With `CC(=O)N[C@@H](CS)C(=O)O` [N-Acetyl Cysteine] as the molecule, how does the “effect on autophagy (number of LC3 punctae normalized by fish area)” value read?
Answer: strongly induce autophagy

Question: Which “effect on autophagy (number of LC3 punctae normalized by fish area)” value does the source give for `O=C(O)[C@@H]1CCCN1` [Proline] here?
Answer: strongly induce autophagy

Question: With `N[C@@H](CO)C(=O)O` [Serine] as the molecule, how does the “effect on autophagy (number of LC3 punctae normalized by fish area)” value read?
Answer: strongly induce autophagy

Question: With `N[C@@H](Cc1ccc(O)cc1)C(=O)O` [Tyrosine] as the molecule, how does the “effect on autophagy (number of LC3 punctae normalized by fish area)” value read?
Answer: strongly induce autophagy

Question: How did the “effect on autophagy (number of LC3 punctae normalized by fish area)” value turn out when `CC(C)[C@H](N)C(=O)O` [Valine] was run?
Answer: strongly induce autophagy
